Some test systems named below: 786-0; ACHN; EKVX; HCC 2998; HCT-116; HOP-92; Hs-578T; MCF7; NCI-H23; NCI-H460; OVCAR-8; PC-3; SF-268; SF-295; SK-MEL-28; SN12C; SNB-75; SR; TK-10; U-251.
Holding throughout (test): NCI-60 cell line screen, 48 h

Experimental findings from ChEMBL document CHEMBL1201862, “PubChem BioAssay data set” (2004) are described below.

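1) Cells in 96-well plates. 2) Compound, 48 h, 5 concentrations. 3) Linear interpolation between surrounding doses. 4) Unreached endpoint = highest concentration. GI50 = concentration required for 50% inhibition of growth.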 Calls of active or inactive are those of the source. Rule as the data show it: active = GI50 up to about 1.1 µM and inactive = higher.

`CCOc1cc2c(cc1O)/C(=N\N)C[C@@H]1[C@@H]2CC[C@]2(C)[C@@H](O)CC[C@@H]12`: the GI50 in the test on 786-0 is 4.48 µM (inactive); in the test with ACHN, 5.61 µM (inactive); with EKVX, 8.28 µM (inactive); in the test on HCC 2998, 2.07 µM (inactive); in the test on HCT-116, 2.34 µM (inactive); in the test on HOP-92 it was 13.2 µM (inactive). In addition, the GI50 in the test with Hs-578T was 3.06 µM (inactive); in the test with MCF7, 2.68 µM (inactive); in the test with NCI-H23 it was 7.01 µM (inactive); in the test on NCI-H460 it was 2.99 µM (inactive); with OVCAR-8 it was 7.1 µM (inactive); in the test on PC-3, 6.34 µM (inactive). For the same compound, the GI50 in the test on SF-268 was 5.3 µM (inactive); with SF-295, 0.397 µM (active); in the test with SK-MEL-28, 5.66 µM (inactive); with SN12C it was 9.12 µM (inactive); in the test with SNB-75, 3.1 µM (inactive); in the test with SR, 0.333 µM (active). The values for the GI50 in the test with TK-10 and in the test with U-251 were 22.2 µM (inactive) and 3.78 µM (inactive), respectively.
In the case of `C1=Cc2cccc3occ(c23)C=C1`, the GI50 was 58.3 µM (inactive) in the test with 786-0; 58.1 µM (inactive) in the test with ACHN; 49.3 µM (inactive) in the test on EKVX; 29 µM (inactive) with HCC 2998; 46.3 µM (inactive) with HCT-116; 91.8 µM (inactive) in the test on HOP-92. The GI50 is 22.1 µM (inactive) in the test on Hs-578T; 31.8 µM (inactive) with MCF7; 84.5 µM (inactive) in the test with NCI-H23; 41.3 µM (inactive) with NCI-H460; 46.8 µM (inactive) in the test with OVCAR-8; 66.4 µM (inactive) in the test on PC-3. For the same compound, the GI50 in the test on SF-268 was > 100 µM (inactive); with SF-295, > 100 µM (inactive); with SK-MEL-28, 47.2 µM (inactive); with SN12C, > 100 µM (inactive); in the test with SR, 15.8 µM (inactive); in the test on TK-10, 36 µM (inactive). Besides, in the test with U-251, the GI50 was 36.3 µM (inactive).
`CC[C@@]1(O)C[C@H](OC2CC(N(C)C)C(O)C(C)O2)c2c(O)c3c(c(O)c2[C@H]1OC1CC(N(C)C)C(O)C(C)O1)C(=O)c1cccc(O)c1C3=O` (stereo partly specified): the GI50 in the test on 786-0 is 0.0196 µM (active); with EKVX it was 0.0984 µM (active); in the test on HCC 2998 it was 0.0284 µM (active); with HCT-116 it was 0.0247 µM (active); in the test on HOP-92, 0.071 µM (active); with Hs-578T it was 0.0577 µM (active). In addition, the GI50 in the test with MCF7 was 0.0321 µM (active); with NCI-H23, 0.057 µM (active); in the test on NCI-H460, 0.018 µM (active); in the test with OVCAR-8, 0.0274 µM (active); with PC-3, 0.0361 µM (active); in the test with SF-268, 0.0603 µM (active). The GI50 in the test with SF-295 is 0.04 µM (active); in the test on SK-MEL-28, 0.0373 µM (active); in the test on SN12C, 0.054 µM (active); in the test with SNB-75, 0.0195 µM (active); in the test with SR, 0.0385 µM (active); in the test on TK-10 it was 0.0473 µM (active). For the same compound, in the test with U-251, the GI50 was 0.0264 µM (active).
Take `Nc1cccc(C#Cc2cccc(C#Cc3cccc(N)n3)n2)n1`: the GI50 is 55.6 µM (inactive) with 786-0; > 100 µM (inactive) in the test with ACHN; > 100 µM (inactive) in the test on EKVX; > 100 µM (inactive) in the test with HCC 2998; > 100 µM (inactive) in the test with HCT-116; > 100 µM (inactive) in the test on HOP-92. The GI50 in the test on Hs-578T was > 100 µM (inactive); in the test with MCF7, > 100 µM (inactive); in the test on NCI-H23, > 100 µM (inactive); in the test on NCI-H460 it was 37.2 µM (inactive); in the test with OVCAR-8, > 100 µM (inactive); in the test on PC-3 it was > 100 µM (inactive). The GI50 in the test on SF-268 is > 100 µM (inactive); in the test on SF-295, 66.7 µM (inactive); in the test with SN12C, 79.3 µM (inactive); in the test on SNB-75, > 100 µM (inactive); in the test on SR, 14 µM (inactive); in the test with TK-10 it was > 100 µM (inactive). In addition, the GI50 in the test with U-251 was > 100 µM (inactive).
With `COc1c(Cl)nc2ccccc2c1N=[N+]=[N-]`, the GI50 with 786-0 is > 100 µM (inactive); with ACHN it was 43.4 µM (inactive); with HCC 2998 it was > 100 µM (inactive); with HCT-116, 52.7 µM (inactive); in the test with HOP-92 it was 22.2 µM (inactive); with Hs-578T, 28.3 µM (inactive). Moreover, the GI50 in the test with MCF7 was > 100 µM (inactive); in the test with NCI-H23, 92.7 µM (inactive); with NCI-H460, > 100 µM (inactive); in the test with PC-3, 46 µM (inactive); in the test on SF-268 it was 28.7 µM (inactive); in the test with SF-295 it was > 100 µM (inactive). The GI50 in the test on SK-MEL-28 was > 100 µM (inactive); in the test with SN12C it was 92 µM (inactive); with SNB-75 it was 63 µM (inactive); in the test with SR it was 80 µM (inactive); with TK-10 it was 70 µM (inactive); with U-251 it was > 100 µM (inactive).
`COc1ccc(C(=O)N2CCc3c([nH]c4ccccc34)C2C(=O)O)o1` (stereo unspecified): the GI50 in the test on 786-0, in the test with ACHN, with EKVX, in the test with HCC 2998, in the test with HCT-116 and in the test with HOP-92 was > 10 µM (inactive) in each case. For the same compound, the GI50 with Hs-578T, with MCF7, in the test with OVCAR-8, in the test with PC-3, with SF-268 and in the test with SF-295 was > 10 µM (inactive) throughout. Moreover, the GI50 with SK-MEL-28, in the test on SN12C, in the test on SNB-75, with SR, with TK-10 and with U-251 was > 10 µM (inactive) throughout.
Consider `O=C1CC(c2ccsc2)n2cccc21` (stereo unspecified), for which the GI50 in the test with 786-0, in the test on ACHN, with EKVX, in the test with HCC 2998, in the test with HCT-116 and in the test on HOP-92 was > 100 µM (inactive) throughout. In addition, the GI50 with Hs-578T, in the test with MCF7, in the test with NCI-H23, in the test with OVCAR-8, in the test with PC-3 and with SF-268 was > 100 µM (inactive) each time. In addition, the GI50 in the test on SF-295 is > 100 µM (inactive); in the test with SK-MEL-28, > 100 µM (inactive); with SN12C, > 100 µM (inactive); with SNB-75 it was 32.1 µM (inactive); with SR it was > 100 µM (inactive); in the test with TK-10 it was > 100 µM (inactive). Besides, the GI50 in the test with U-251 is > 100 µM (inactive).
On to `Cn1cnc(N2CCCC2)c(C#N)c1=S`, for which the GI50 is > 100 µM (inactive) in the test with 786-0; > 100 µM (inactive) with ACHN; 94.4 µM (inactive) with EKVX; > 100 µM (inactive) with HCC 2998; > 100 µM (inactive) in the test on HCT-116; 76.2 µM (inactive) in the test on HOP-92. The GI50 in the test with Hs-578T, in the test with MCF7, in the test on NCI-H23, with NCI-H460, in the test on OVCAR-8 and in the test with PC-3 was > 100 µM (inactive) throughout. The GI50 with SF-268, in the test on SF-295, with SK-MEL-28, with SN12C, in the test on SR and in the test on TK-10 was > 100 µM (inactive) each time. The GI50 in the test with U-251 was > 100 µM (inactive).
In the case of `COc1cc(C(=O)C2C(=O)c3ccccc3C2C2(O)c3ccccc3CC2C(O)c2cc(OC)c(OC)c(OC)c2)cc(OC)c1OC` (stereo unspecified), the GI50 was > 100 µM (inactive) with 786-0; > 100 µM (inactive) with ACHN; > 100 µM (inactive) in the test on EKVX; > 100 µM (inactive) in the test with HCC 2998; > 100 µM (inactive) with HCT-116; 51.2 µM (inactive) in the test with HOP-92. In addition, the GI50 with Hs-578T is > 100 µM (inactive); in the test on MCF7 it was > 100 µM (inactive); in the test on NCI-H23 it was > 100 µM (inactive); with NCI-H460, > 100 µM (inactive); with OVCAR-8 it was 62.4 µM (inactive); in the test on PC-3, > 100 µM (inactive). For the same compound, the GI50 with SF-268 is 91.4 µM (inactive); in the test on SF-295, 74.6 µM (inactive); in the test on SK-MEL-28, > 100 µM (inactive); in the test on SN12C, > 100 µM (inactive); with SNB-75, 20.3 µM (inactive); with SR, > 100 µM (inactive). Moreover, the GI50 in the test with TK-10 is > 100 µM (inactive); in the test with U-251 it was 41.3 µM (inactive).
`CN(C)CCCNc1ccc2nnn3c4ccc([N+](=O)[O-])cc4c(=O)c1c23`: the GI50 with 786-0 was 0.624 µM (active); in the test with ACHN, 0.542 µM (active); with EKVX it was 2.56 µM (inactive); with HCC 2998, 2.23 µM (inactive); with HCT-116 it was 0.404 µM (active); in the test with HOP-92, 1.57 µM (inactive). Moreover, the GI50 in the test with Hs-578T is 3.81 µM (inactive); with MCF7, 1.74 µM (inactive); in the test with NCI-H23, 2.03 µM (inactive); in the test on NCI-H460, 0.313 µM (active); with OVCAR-8, 0.597 µM (active); in the test with PC-3, 1.28 µM (inactive). Further, the GI50 in the test on SF-268 was 1.14 µM (inactive); with SF-295, 1.42 µM (inactive); in the test with SK-MEL-28 it was 4.6 µM (inactive); in the test with SN12C, 0.695 µM (active); in the test on SNB-75, 1.51 µM (inactive); with SR it was 0.617 µM (active). Also, the GI50 is 1.13 µM (inactive) in the test with TK-10 and 0.738 µM (active) in the test with U-251.
